Reference: patent publication US20080039383A1, “Methods and compositions for inhibiting ER-stress induced cholesterol/triglyceride accumulation” (HAMILTON CIVIC HOSPITAL RESEARCH DEVELOPMENT INC., priority 1999, published 2008)
“Also recorded” adds a separate entry of the source.

Assays:
[1] = tested on: GRP78/BiP and GADD153 mRNA; test: Northern blot analysis of ER stress response genes in HepG2 cells; assay type: cell-based, human; conditions: 4 h, 5 mM amino acids, 2.5 mM DTT, 10 μg/ml tunicamycin
Experimental: (§1) Cell culture and treatment conditions. Primary human umbilical vein endothelial cells (HUVEC) were isolated by collagenase treatment of human umbilical veins (Jaffe, E. A, 1973) and cultured in EC medium (M199 medium, 20 μg/ml endothelial cell growth factor, 90 μg/ml porcine intestinal heparin, 100 μg/ml penicillin and 100 μg/ml streptomycin) containing 20% fetal bovine serum (Hyclone; Logan, Utah) in a humidified incubator at 37° C. with 5% CO2. Cells from passages 2-4 were used in these studies. Human aortic smooth muscle cells (HASMC) were purchased from Cascade Biologicals (Portland, Oreg.) and cultured in M231 media (Cascade Biologicals) containing smooth muscle cell growth supplement (Cascade Biologicals). The human hepatocarcinoma cell line, HepG2, was obtained from the American Type Culture Collection (ATCC; Rockville, Md.) and cultured in A-DMEM containing 10% fetal bovine serum. DL-homocysteine, L-methionine, DL-cysteine, glycine, DL-dithiothreitol ([…]), tunicamycin, A23187 and β-mercaptoethanol were purchased from Sigma (St. Louis, Mo.). These compounds were prepared fresh in culture medium, sterilized by filtration and added to the cell cultures.
(§2) Preparation of Total RNA. […] .

[2] = tested on: SREBP, HMG-CoA reductase, IPP isomerase (IPPI) and FPP synthase mRNA; test: Northern blot analysis of cholesterol/triglyceride biosynthesis and uptake gene mRNA in cultured human cells; assay type: cell-based; conditions: for expression of cholesterol biosynthetic enzymes (Northern analysis): HUVEC and HepG2 cells; for steady-state mRNA levels of IPPI / steady-state mRNA levels of IPPI (IPP isomerase): 4 hours; for steady-state mRNA levels of IPPI: 5 mM amino acid or 2 mM DTT; for steady-state mRNA levels of IPPI (IPP isomerase): homocysteine 5 mM, DTT, β-mercaptoethanol 5 mM, tunicamycin 10 μg/ml, A23187 10 μM; for IPPI mRNA levels: 0-18 hours
Experimental: as §1, §2

cultured cells = conditions: cited from earlier work; for overall cell number or viability: extracellular concentrations up to 5 mM
HASMC [3] = test: Intracellular total cholesterol in HASMC; assay type: cell-based, human; conditions: 0-5 mM, 24-48 h
Experimental: (§3) Lipids are extracted with hexane:isopropanol (3:2), dried and resuspended in hexane. Colorimetric cholesterol assays is carried out using the Sigma Diagnostics Cholesterol Reagent (Sigma) to determine total cholesterol levels. Total plasma cholesterol are measured using the same assay but without the lipid extraction step.
as §1
(§4) Total cholesterol and triglyceride levels.

HepG2 cells [4] = test: Intracellular total cholesterol in HepG2 cells; assay type: cell-based, human; conditions: HepG2, 0-5 mM, 24-48 h
Experimental: as §3, §1, §4

SREBP-1 = test: Immunoblot of SREBP-1 precursor and mature forms in HepG2 cells; assay type: cell-based, human; conditions: 5 mM homocysteine
Experimental: as §1
(§5) Immunoblot analysis. The anti-KDEL mAb (SPA-827), which recognizes both GRP78/BiP and GRP94, was purchased from StressGen Biotechnologies (Victoria, BC). […]

GRP78/BiP and GRP94 = test: Immunoblot with anti-KDEL mAb in HepG2 cells; assay type: cell-based, human; conditions: HepG2, 5 mM homocysteine, 8, 18 and 36 h
Experimental: as §1, §5

HUVEC [5] = test: BODIPY FL LDL / AcLDL binding and uptake in HUVEC; assay type: cell-based, human
Experimental: as §1
(§6) Uptake of BODIPY FL LDL and image analysis. […] Images were subsequently captured and analyzed using Northern Exposure image analysis/archival software (Mississauga, ON).

HUVEC [6] = test: Intracellular total cholesterol in HUVEC; assay type: cell-based, human; conditions: 0-5 mM, 24-48 h
Experimental: as §3
as §1, with “These compounds were prepared fresh in culture medium, sterilized by filtration and added to the cell cultures.” left out

HASMC [7] = test: BODIPY FL LDL binding and uptake in HASMC; assay type: cell-based, human
Experimental: as §1, §6

SREBP-2 = test: Immunoblot of SREBP-2 forms in HepG2 cells; assay type: cell-based, human; conditions: HepG2 cells (data not shown)
Experimental: as §1, §5

HepG2 cells [8] = test: BODIPY FL LDL binding and uptake in HepG2 cells; assay type: cell-based, human; conditions: 5 mM homocysteine 8 hr
Experimental: as §1, §6

[9] = HepG2 cells, 5 mM homocysteine, 0-18 h

O[C@H](CS)[C@H](O)CS (racemic) [DTT, DL-dithiothreitol]
steady-state mRNA levels of GRP78/BiP and GADD153 [1]: also induced the steady-state mRNA levels of GRP78/BiP and GADD153 | expression of cholesterol biosynthetic enzymes (Northern analysis) [2]: induce the cholesterol biosynthetic pathway in a manner similar to that of homocysteine | steady-state mRNA levels of IPPI ([2]; HUVEC): significantly increased IPPI mRNA levels | steady-state mRNA levels of IPPI (IPP isomerase) ([2]; HepG2 cells): induced the expression of IPP isomerase; also recorded: increase IPPI mRNA levels

NC(CS)C(=O)O (racemic) [cysteine, DL-cysteine]
steady-state mRNA levels of GRP78/BiP and GADD153 [1]: failed to induce the expression of these ER stress response genes | overall cell number or viability (cultured cells): does not effect cell viability | total cellular cholesterol normalized to protein (HASMC [3]): but not cysteine, increased cellular cholesterol | expression of cholesterol biosynthetic enzymes (Northern analysis) [2]: no other amino acids, including thiol-containing methionine and cysteine, have significant effects | steady-state mRNA levels of IPPI ([2]; HUVEC): only homocysteine and DTT significantly increased IPPI mRNA levels | total cellular cholesterol normalized to protein (HepG2 cells [4]): but not cysteine, increased cellular cholesterol

NC(CCS)C(=O)O (racemic) [homocysteine, DL-homocysteine]
levels of active (68 kDa) and precursor (125 kDa) forms of SREBP-1 (SREBP-1): increased levels of both active (68 kDa) and precursor (125 kDa) forms of SREBP-1 | GRP78/BiP and GRP94 protein levels (GRP78/BiP and GRP94): elevated | steady-state mRNA levels of GRP78/BiP and GADD153 [1]: increased steady-state mRNA levels of GRP78/BiP and GADD153 | LDL or AcLDL binding (HUVEC [5]; 4 hour pre-treatment with 5 mM homocysteine): no significant effect | LDL and AcLDL binding/uptake (HUVEC [5]; 8 h incubation with 5 mM homocysteine): significant decrease in LDL and AcLDL binding; also recorded: significant decrease in LDL uptake; also recorded: similarly down-regulated | overall cell number or viability (cultured cells): no effect on overall cell number or viability; also recorded: does not effect cell viability | EC injury (cultured cells; homocysteine concentrations up to 5 mM): do not cause EC injury | total cellular cholesterol normalized to protein (HUVEC [6]): no significant change in the total cholesterol concentration; also recorded: unchanged | LDL uptake (HASMC [7]; 5 mM homocysteine 8 hr): maintained their ability to endocytose LDL | ability to bind LDL (HASMC [7]; after 18 h of incubation): no impairment | active and precursor forms of SREBP-2 (SREBP-2): also increased | total cellular cholesterol normalized to protein (HASMC [3]): promotes cholesterol accumulation | total cellular cholesterol normalized to protein (HASMC [3]; listed as Homocysteine): increased cellular cholesterol | IPPI mRNA levels ([2]; HASMC, 5 mM homocysteine): significantly increases IPPI mRNA levels | IPPI mRNA levels ([2]; HUVEC, 5 mM homocysteine): significantly increases IPPI mRNA levels | expression of cholesterol biosynthetic pathway genes, clusterin and SREBP ([2]; HUVEC, 1-5 mM homocysteine for as little as 2 hours): enhanced | steady-state mRNA levels of IPPI ([2]; HUVEC): significantly increased IPPI mRNA levels | IPPI mRNA levels ([2]; HepG2, 5 mM homocysteine): significantly increases IPPI mRNA levels | steady-state mRNA levels of SREBP, HMG-CoA reductase and FPP synthase ([2]; HepG2 cells, 5 mM homocysteine, 0, 2, 4, 8 or 18 hours): increased steady-state mRNA levels for all transcripts | steady-state mRNA levels of HMG-CoA reductase, IPP isomerase and FPP synthase [2, 9]: increased and peaked between 2 and 4 hr | steady-state mRNA levels of SREBP-1 [2, 9]: increased and peaked between 2 and 4 h | steady-state mRNA levels of IPPI (IPP isomerase) ([2]; HepG2 cells): induced the expression of IPP isomerase; also recorded: increase IPPI mRNA levels | mRNA levels of acetyl CoA carboxylase, fatty acid synthase and LDL receptor ([2]; homocysteine treated HepG2 cells (data not shown)): also increased | total cellular cholesterol normalized to protein (HepG2 cells [4]): promotes cholesterol accumulation | total cellular cholesterol normalized to protein (HepG2 cells [4]; listed as Homocysteine): increased cellular cholesterol | LDL binding/uptake (HepG2 cells [8]): may further enhance LDL binding; also recorded: enhanced LDL uptake

CNc1ccc2oc(C[C@H]3O[C@@]4(CC[C@H]3C)O[C@H]([C@H](C)C(=O)c3ccc[nH]3)[C@H](C)C[C@H]4C)nc2c1C(=O)O [A23187]
expression of cholesterol biosynthetic enzymes (Northern analysis) [2]: induce the cholesterol biosynthetic pathway in a manner similar to that of homocysteine | steady-state mRNA levels of IPPI (IPP isomerase) ([2]; HepG2 cells): induced the expression of IPP isomerase; also recorded: increase IPPI mRNA levels

C[C@@H]1C[C@@H]([C@H](O)CC2CC(=O)NC(=O)C2)C(=O)[C@@H](C)C1 [cycloheximide]
effect on induction of cholesterol/triglyceride genes by homocysteine ([2]; data not shown): does not block the induction of these genes by homocysteine

NCC(=O)O [glycine]
steady-state mRNA levels of GRP78/BiP and GADD153 [1]: failed to induce the expression of these ER stress response genes | steady-state mRNA levels of IPPI ([2]; HUVEC): only homocysteine and DTT significantly increased IPPI mRNA levels

N[C@@H](CCO)C(=O)O [homoserine]
steady-state mRNA levels of GRP78/BiP and GADD153 [1]: failed to induce the expression of these ER stress response genes | steady-state mRNA levels of IPPI ([2]; HUVEC): only homocysteine and DTT significantly increased IPPI mRNA levels

CSCC[C@H](N)C(=O)O [methionine, L-methionine]
steady-state mRNA levels of GRP78/BiP and GADD153 [1]: failed to induce the expression of these ER stress response genes | expression of cholesterol biosynthetic enzymes (Northern analysis) [2]: no other amino acids, including thiol-containing methionine and cysteine, have significant effects | steady-state mRNA levels of IPPI ([2]; HUVEC): only homocysteine and DTT significantly increased IPPI mRNA levels

OCCS [β-mercaptoethanol]
steady-state mRNA levels of IPPI (IPP isomerase) ([2]; HepG2 cells): induced the expression of IPP isomerase; also recorded: increase IPPI mRNA levels

tunicamycin
steady-state mRNA levels of GRP78/BiP and GADD153 [1]: also induced the steady-state mRNA levels of GRP78/BiP and GADD153 | expression of cholesterol biosynthetic enzymes (Northern analysis) [2]: induce the cholesterol biosynthetic pathway in a manner similar to that of homocysteine | steady-state mRNA levels of IPPI (IPP isomerase) ([2]; HepG2 cells): induced the expression of IPP isomerase; also recorded: increase IPPI mRNA levels
